Data reported in PubChem BioAssay (NCI).
Values joined by “and” are separate entries in the source; they are usually repeats but may differ in a detail not shown here. Equal values may be shown once.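 Cultured in 96-well plates, cells were exposed to test compound for 48 hours across five concentrations. GI50: concentration for 50% inhibition of growth. The concentration for full growth arrest is given as TGI.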

What was measured:
Assay in all cases: NCI-60 cell line screen, 48 h
SK-MEL-2 melanoma = system: SK-MEL-2 melanoma
HOP-62 NSCLC = system: HOP-62 NSCLC
SN12C renal = system: SN12C renal
HT29 colon = system: HT29 colon
LOX IMVI melanoma = system: LOX IMVI melanoma
SF-539 CNS = system: SF-539 CNS
786-0 renal = system: 786-0 renal
NCI-H226 lung = system: NCI-H226 lung
MDA-MB-435 = system: MDA-MB-435
MCF7 breast = system: MCF7 breast

Structure (SMILES)	TGI (SK-MEL-2 melanoma)	TGI (HOP-62 NSCLC)	TGI (SN12C renal)	TGI (HT29 colon)	TGI (LOX IMVI melanoma)	TGI (SF-539 CNS)	TGI (786-0 renal)	TGI (NCI-H226 lung)	GI50 (SK-MEL-2 melanoma)	GI50 (NCI-H226 lung)	GI50 (HOP-62 NSCLC)	GI50 (SN12C renal)	GI50 (HT29 colon)	GI50 (LOX IMVI melanoma)	GI50 (MDA-MB-435)	TGI (MDA-MB-435)	GI50 (MCF7 breast)	TGI (MCF7 breast)	GI50 (786-0 renal)	GI50 (SF-539 CNS)
CC1=CC(O)(c2ccc(-c3ccccc3Cl)cc2)OC1=O (stereo unspecified)	> 100 µM	> 100 µM	> 100 µM	> 100 µM	> 100 µM	> 100 µM	> 100 µM	–	–	–	–	–	–	–	–	–	–	–	–	–
CC(C)OP(=O)(OC(C)C)C(=NCCN=C(NNc1ccc([N+](=O)[O-])cc1)P(=O)(OC(C)C)OC(C)C)NNc1ccc([N+](=O)[O-])cc1	53 µM	> 100 µM	> 100 µM	–	> 100 µM	> 100 µM	> 100 µM	93.3 µM	–	–	–	–	–	–	–	–	–	–	–	–
OCC#Cc1ccccc1C#Cc1ccccc1	51.3 µM	26.8 µM	21.3 µM	97.6 µM	27.6 µM	–	27.7 µM	29.4 µM	24.1 µM	15 µM	13.9 µM	8.79 µM	23.6 µM	13.2 µM	14.2 µM	28.1 µM	19.5 µM	44.4 µM	14.6 µM	–
CCOC(=O)C(=C=C=C(c1ccccc1)c1ccccc1)C(=O)OCC	36.9 µM	45.2 µM	42.4 µM	41.7 µM	36.6 µM	33.8 µM	32 µM	37.6 µM	–	–	–	–	–	–	–	–	–	–	–	–
N=Nc1c(OC(=O)Nc2cccc(Cl)c2)[nH]c2ccccc12	24.4 µM	13.1 µM	14.8 µM	17.7 µM	20.8 µM	32.6 µM	18.2 µM	34.5 µM	–	–	–	–	–	–	–	21.3 µM	–	23.5 µM	–	–
CC(=O)OC1COC(n2ccc3cc(Br)c([N+](=O)[O-])cc32)C(OC(C)=O)C1OC(C)=O (stereo unspecified)	–	92.2 µM	> 100 µM	> 100 µM	40.7 µM	44.4 µM	97.9 µM	43.9 µM	–	–	–	–	–	–	–	–	–	–	–	–
Cn1c2ccccc2c2cc(-c3ccccc3)c3c(c21)C(=O)c1ccccc1C3=O	43.4 µM	> 100 µM	> 100 µM	> 100 µM	–	49.2 µM	35.7 µM	84 µM	–	–	–	–	–	–	–	–	–	–	–	–
Brc1ccccc1C1SCc2nc3ccccc3n21 (stereo unspecified)	32.5 µM	39.2 µM	25.8 µM	60.9 µM	26 µM	33 µM	29.4 µM	31.6 µM	–	–	–	–	–	–	–	–	–	–	–	–
Cc1ccccc1S(=O)(=O)OC1NS(=O)(=O)c2ccccc21 (stereo unspecified)	> 100 µM	> 100 µM	> 100 µM	> 100 µM	> 100 µM	> 100 µM	> 100 µM	–	–	–	–	–	–	–	–	> 100 µM	–	> 100 µM	–	–
CCc1cc(Cc2cc(CC)c(NC(=O)C(=O)Cc3ccccn3)c(CC)c2Cl)c(Cl)c(CC)c1NC(=O)C(=O)Cc1ccccn1	> 100 µM	> 100 µM	> 100 µM	> 100 µM	> 100 µM	> 100 µM	> 100 µM	> 100 µM	–	–	–	–	–	–	–	–	–	–	–	–
O=c1cc(-c2ccccc2)oc2cc(OCCCOc3ccc4c(=O)cc(-c5ccccc5)oc4c3)ccc12	> 100 µM	> 100 µM	> 100 µM	> 100 µM	> 100 µM	> 100 µM	> 100 µM	> 100 µM	–	–	–	–	–	–	–	–	–	–	–	–
CC(=O)[C@@]12O[C@@H]1CC1C3CCC4=CC(O)CCC4(C)C3CCC12C (stereo partly specified)	> 100 µM	–	> 100 µM	> 100 µM	> 100 µM	> 100 µM	> 100 µM	> 100 µM	> 100 µM	75.9 µM	–	81 µM	47.9 µM	44.4 µM	> 100 µM	> 100 µM	> 100 µM	> 100 µM	> 100 µM	39 µM
Cc1cccc(NC(=O)Cn2cnc3sc(C(=O)OC(C)C)c(C)c3c2=O)c1	> 50 µM	35.9 µM	22.3 µM	–	35.9 µM	21.5 µM	> 50 µM	–	16 µM	–	13.7 µM	7.66 µM	–	11.2 µM	> 50 µM	> 50 µM	38.2 µM	> 50 µM	32.9 µM	8.77 µM
CC(C)(C)OC(=O)N[C@H]1CC2(C=C(Cl)C(=O)C(Cl)=C2)OC1=O	41.7 µM	> 73.7 µM	33.3 µM	27.9 µM	34.5 µM	45.1 µM	28.6 µM	> 81.6 µM	–	–	–	–	–	–	–	–	–	23.3 µM	–	–
COc1ccc([C@H]2[C@@H](F)C(=O)N2c2cc(OC)c(OC)c(OC)c2)cc1F	> 100 µM	> 100 µM	> 100 µM	> 100 µM	> 100 µM	0.217 µM	15.1 µM	> 100 µM	0.303 µM	22.2 µM	0.511 µM	0.482 µM	0.134 µM	0.0904 µM	–	–	0.0364 µM	> 100 µM	0.0462 µM	0.028 µM
COc1ccc(S(=O)(=O)NNS(C)(=O)=O)cc1	> 100 µM	> 100 µM	> 100 µM	> 100 µM	> 100 µM	> 100 µM	> 100 µM	> 100 µM	–	–	–	–	–	–	–	–	–	–	–	–
CN(C)c1nc(=Nc2ccc(N=c3nc(N(C)C)ss3)cc2)ss1	> 100 µM	> 100 µM	> 92.3 µM	54.5 µM	> 67.9 µM	> 100 µM	> 100 µM	> 100 µM	–	–	–	–	–	–	–	–	–	–	–	–
Cc1c2c(nn1-c1ccc(S(=O)(=O)/N=C3\SCCC(=O)N3c3ccccc3)cc1)-c1ccccc1CC2	> 100 µM	> 100 µM	> 100 µM	> 100 µM	> 100 µM	–	> 100 µM	> 100 µM	> 100 µM	84.4 µM	46.4 µM	87.5 µM	> 100 µM	> 100 µM	> 100 µM	> 100 µM	–	–	81.7 µM	–
CN(C)CCSC1=Nc2ccc(Cl)cc2C(c2ccccc2Cl)=NC1	> 100 µM	32.1 µM and > 100 µM	26.5 µM and > 100 µM	35.4 µM and > 100 µM	30.9 µM and > 100 µM	31.6 µM and > 100 µM	31.5 µM and > 100 µM	–	–	–	15.8 µM and > 100 µM	13.5 µM and > 100 µM	15 µM and 40.6 µM	15.6 µM and 69.7 µM	–	28.4 µM and 38.7 µM	12 µM and 67.4 µM	25.5 µM and > 100 µM	14.3 µM and > 100 µM	17.3 µM and > 100 µM
